Measurements published in publication PMC4865820, “Branched Peptide, B2088, Disrupts the Supramolecular Organization of Lipopolysaccharides and Sensitizes the Gram-negative Bacteria” (Scientific Reports, 2016).
Positions of bridges follow the written chain, without caps; N, C: chain ends. Non-standard residues stand in square brackets, D forms with d. Residues, ends and D or L forms follow the SMILES beside them. Chains are numbered I, II in the order given. *: point of attachment. X1 = CC[C@H](C)CCCCC(=O)*; Dab = NCC[C@H](N)C(=O)O

How the values were obtained:
FITC-labelled LPS = experiment: FITC-LPS fluorescence interaction assay; format: binding; settings: 5 μg/ml FITC-LPS, ex 485/em 515 nm, 25 °C
From the text: To confirm the findings from ITC experiments, we examined the ultrastructure of LPS or the LPS/B2088 complex by electron microscopy. TEM analysis of the LPS indicated a ribbon-like structure (Fig. 3a), consistent with previous studies. For the LPS-B2088 complex, the peptide:LPS ratios were chosen to epitomize the initial (high peptide:LPS) or final (low peptide:LPS) injections of the ITC curves shown in Fig. 2a–c. At low peptide:LPS ratio (~0.04), more electron-dense surface appeared presumably due to binding of the peptide to LPS may cause partial/complete neutralization of the negative charges and the ribbon-like structure of LPS remained intact (Fig. 3b). […]
The interaction between FITC-LPS was determined by monitoring the change in fluorescence emission intensity (λex = 485 nm and λem = 515 nm) using a Quanta Master spectrophotometer (Photon Technology International, NJ, USA) with a constant slit width of 0.5 nm at 25 °C. Briefly, the emission intensity of 5 μg/ml of FITC-LPS was monitored continuously in a 1 ml cuvette until it remained constant. 10 μl a concentrated stock solution of B2088 was added and the changes in fluorescence intensity were recorded as before.

[1] = test system: P. aeruginosa ATCC 9027 and P. aeruginosa DM4877/07 strains; experiment: Time-kill kinetics; format: cell-based; settings: ¼ × MIC of B2088 alone, 0–24 h, MHB, 37 °C
From the text: It is likely that disruption of the supramolecular organization of LPS could enhance the intracellular accessibility of the antibiotics thus rendering the micro-organisms susceptible at sub-lethal concentration of the drugs. To confirm this, we performed time-kill kinetics at sub-lethal concentration of B2088, antibiotics and their combinations against two different P. aeruginosa strains. […] The effect was quite remarkable for the B2088-gatifloxacin combination as >5 log10 reduction in CFU/ml was apparent in less than 2 h against two different P. aeruginosa strains.
Figure 6 Antimicrobial efficacy of B2088-antibiotics combinations. Time-kill kinetics showing synergism between B2088 and other antibiotics. (a) B2088 and gatifloxacin against P. aeruginosa ATCC 9027 strains. (b) B2088 and gatifloxacin against P. aeruginosa DM4877/07 strains. (c) B2088 and tobramycin against P. aeruginosa DM4877/07 strains. (d) B2088 and chloramphenicol against P. aeruginosa DM4877/07 strains. Note that for simplicity B2088 and the antibiotics are represented by single letter codes (B – B2088, G – gatifloxacin, T – tobramycin, C – chloramphenicol).
The kinetics of bactericidal action of is assessed by using each drug alone or in combinations at their sub-inhibitory MICs. […]

[2] = test system: LPS (E. coli serotype 055:B5); settings: ref Torrent et al. [24]; cited from earlier work
From the text: To investigate the interaction of B2088 with LPS, we performed the BODIPY TR cadaverine (BC) displacement assay reported by Wood et al.[22]. The probe binds to the lipid A part of the LPS with moderate affinity and can be displaced by putative LPS-binding molecules. The method was used to probe the affinity of polycationic molecules and LPS binding proteins. First, we determined the affinity of polymyxin B (PMB), a lipopeptide cyclic antibiotic which has a high affinity for LPS.

SMILES	Peptide concentration above which dequenching of FITC-LPS fluorescence occurred (FITC-labelled LPS)	Time-kill outcome [1]	ED50 (BC displacement from LPS), literature value [2] [nM]
CC(C)[C@H](NC(=O)[C@H](CCCCN)NC(=O)[C@H](CCCNC(=N)N)NC(=O)CNC(=O)[C@@H](N)CCCNC(=N)N)C(=O)N[C@H](C(=O)N[C@@H](CCCNC(=N)N)C(=O)N[C@@H](CCCNC(=N)N)C(=O)NCCCC[C@H](NC(=O)[C@H](CCCNC(=N)N)NC(=O)[C@H](CCCNC(=N)N)NC(=O)[C@@H](NC(=O)[C@@H](NC(=O)[C@H](CCCCN)NC(=O)[C@H](CCCNC(=N)N)NC(=O)CNC(=O)[C@@H](N)CCCNC(=N)N)C(C)C)C(C)C)C(=O)N[C@@H](CCCCN)C(=O)O)C(C)C [B2088] (I: H-RGRKVVRRKK-OH / II: H-RGRKVVRR; amide I:9-II:C; N-terminus and C-terminus assumed)	above 25 μg/ml	no bacteriostatic or bactericidal activity	–
CC[C@H](C)CCCCC(=O)N[C@@H](CCN)C(=O)N[C@H](C(=O)N[C@@H](CCN)C(=O)N[C@H]1CCNC(=O)[C@H]([C@@H](C)O)NC(=O)[C@H](CCN)NC(=O)[C@H](CCN)NC(=O)[C@H](CC(C)C)NC(=O)[C@@H](Cc2ccccc2)NC(=O)[C@H](CCN)NC1=O)[C@@H](C)O [Polymyxin B, polymyxin B, reference compound] (X1-[Dab]T[Dab][Dab][Dab][dF]L[Dab][Dab]T; lactam 4-C (inferred); N-terminus assumed)	–	–	2500 ± 100
